Data set [1] has as its system centrosome-amplified (4NCA) DLD1 cells. Nature of the data set: Multipolar spindle assay (4NCA cell line). It is filed as cell-based, human. The text has this:
(§1) The cellular models consisted of chromosomally stable human colon cancer DLD1 diploid (2N) and tetraploid (4N) cells, along with tetraploid centrosome -amplified (4NCA) DLD1 cells and DLD1 HSET knockout (KO) cells. DLD1 2N and 4N cells were generated and characterized as previously described.[27],[41],[42] In order to generate 4NCA cells, we used dihydro-cytochalasin B (DCB) to transiently block cytokinesis and induce tetraploidisation and centrosome amplification in DLD1 cells. Centrosome amplification in 4NCA cells is transient and therefore they were generated from 2N cells for each run of the assay.[27] The DLD1 HSET KO cells were knockout clones generated by CRISPR and validated by sequencing to have a homozygous deletion in the KIFC1 gene.
(§2) Inhibition of HSET-mediated clustering was measured using a phenotypic assay measuring the formation of multipolar metaphase spindles in DLD1 cells with (4NCA) or without (4N) centrosome amplification. 4NCA cells were generated by treating 2N DLD1 cells with 2 μΜ DCB for 24 h, washed, and released in growth media for 24 h. 4N and 4NCA DLD1 cells were plated in 96-well ibidi μ-Clear plates (IB-89626, ibidi) with a no. 1.5 polymer coverslip bottom with optimal imaging properties. To enrich the mitotic population, cells were first treated for 3.5 h with 8 μM pro-TAME (I-440-01M, R&D system), an inhibitor of APC/C that transiently arrests cells in metaphase without affecting the structure of the spindle. Following the initial arrest, cells were treated with HSET compounds in the presence of 8 μM MG-132 (S2619, SelleckChem), a proteasome inhibitor that helps to maintain the metaphase arrest, where the number of spindle poles/cell can be optimally quantified by an automated segmentation analysis.
(§3) Cells were then fixed in methanol and stained for 3 h for mitotic pole marker aurora A (1:1000 610939 mouse anti-IAK1, BD Biosciences) and phosphorylated histone H3 (1:1500 ab47297 anti-histone H3 pS10, Abcam) as a marker of mitotic cells in 1.5% FBS in PBS. Following primary antibody treatment, cells were incubated with secondary antibodies Alexa Fluor 488 goat antimouse and Alexa Fluor 555 goat antirabbit (1:1500, A11029 and A21429, respectively, Life Technologies) together with 1 μg/mL DAPI (D9542, Sigma) in 1.5% FBS in PBS. Image acquisition was performed at 10× using the GE INCELL 2200 High Content Imaging System (Cytiva) and analyzed using the InCell Investigator software. Mitotic cells were identified by high pHH3 staining and were scored as multipolar if they had more than two mitotic spindle poles. The percentage of multipolar mitoses was calculated by dividing the number of multipolar mitoses by the total of all visible mitoses in one well of a 96-well plate (n > 100 for each replicate, two replicates per concentration point).

In data set [2] the target is T1, recombinant full-length HSET (Homo sapiens, UniProt Q9BW19).
T1 construct: 5 nM full-length human N-terminal His-tag HSET; His-tag (N)
T1 sequence (Q9BW19 1-673): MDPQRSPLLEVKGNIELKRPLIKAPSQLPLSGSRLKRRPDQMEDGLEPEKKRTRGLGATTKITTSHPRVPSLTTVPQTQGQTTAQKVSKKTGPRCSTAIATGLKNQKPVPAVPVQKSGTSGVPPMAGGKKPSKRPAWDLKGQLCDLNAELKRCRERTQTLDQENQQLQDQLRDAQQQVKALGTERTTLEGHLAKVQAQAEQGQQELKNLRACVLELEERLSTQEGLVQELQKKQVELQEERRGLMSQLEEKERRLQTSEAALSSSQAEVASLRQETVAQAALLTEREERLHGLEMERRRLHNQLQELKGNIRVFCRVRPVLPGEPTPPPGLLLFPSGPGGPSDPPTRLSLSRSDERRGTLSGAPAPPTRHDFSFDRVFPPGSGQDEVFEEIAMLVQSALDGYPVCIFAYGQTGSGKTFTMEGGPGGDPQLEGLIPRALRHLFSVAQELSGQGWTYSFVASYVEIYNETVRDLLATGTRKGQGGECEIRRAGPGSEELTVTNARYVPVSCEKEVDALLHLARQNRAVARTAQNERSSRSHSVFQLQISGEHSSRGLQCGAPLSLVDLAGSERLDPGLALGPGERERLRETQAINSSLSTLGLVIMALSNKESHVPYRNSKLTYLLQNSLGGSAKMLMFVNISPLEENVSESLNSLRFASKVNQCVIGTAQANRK
Briefly: ADP-Glo HSET assay (3 μM ATP), microtubule-stimulated ATPase. It is filed as biochemical. On the procedure: (§4) The HSET or Eg5 ATPase activity was measured using the ADP-Glo Kinase Assay kit (Promega, V9102). The assays were run using final concentrations of 5 nM full-length human N-terminal His-tag HSET or 4 nM GST-tagged Eg5 motor domain protein (Cytoskeleton, EG01) and an assay buffer containing 20 mM HEPES pH 6.8, 10 mM MgCl2, 0.25 mM EGTA, 0.4 mM Triton X-100, and 1 mM DTT. Preformed microtubules (Universal Biologicals Cambridge, bovine MT001-XL, or porcine MT002-XL), which were reconstituted in 15 mM PIPES pH 7, 1 mM MgCl2, and 20 μM paclitaxel, were present at a final assay concentration of 70 μg/mL. A reaction volume of 5 μL was used in Proxiplate 384 plus white assay plates (PerkinElmer, 6008280). To measure compound inhibition, 100 nL of compound dissolved in DMSO or DMSO alone was preincubated with the HSET and microtubules for 10 min before 3 μM Ultra-Pure ATP was added to start the ATPase reaction for the 3 μM ATP HSET assay. For the 500 μM ATP HSET assay, the addition of 500 μM Ultra-Pure ATP was used. For the Eg5 ATPase assay, 4.8 μM Ultra-Pure ATP was used. All reactions were incubated at 25 °C for 80 min and then stopped by the addition of 5 μL of the ADP-Glo reagent. 10 μL of Kinase Detection Reagent was then added after a further 45 min of incubation. The luminescence was read after 45 min on a PheraStar FSX plate reader (BMG Labtech). The data processing was performed using Dotmatics Studies software package. Percentage inhibition was determined based on normalization to high controls (0% inhibition, all reagents with 100 nL of DMSO alone) and low controls (100% inhibition […], without HSET). The IC50 values for each compound were determined using a four-parameter logistic curve fit of % inhibition versus concentration.
Background: ADP-Glo turns the ADP formed in a reaction into a luminescent signal.

For data set [3], the system named is non-centrosome amplified DLD1 (4N) cells. Briefly: Multipolar spindle assay (4N cell line). It is filed as cell-based, human. To be noted: for % Multipolarity above baseline @ 15 mM (4N cells): supplementary CSV; for % multipolarity above baseline @ 15 μM (4N cells): 4N DLD1 cells (Table 4).
From the text: as §1, §2, §3

Data set [4] has as its target T2, GST-tagged Eg5 motor domain (Homo sapiens, UniProt P52732).
T2 construct: 4 nM GST-tagged Eg5 motor domain protein (Cytoskeleton, EG01); purchased Cytoskeleton EG01
T2 sequence (P52732 18-359 limits assumed): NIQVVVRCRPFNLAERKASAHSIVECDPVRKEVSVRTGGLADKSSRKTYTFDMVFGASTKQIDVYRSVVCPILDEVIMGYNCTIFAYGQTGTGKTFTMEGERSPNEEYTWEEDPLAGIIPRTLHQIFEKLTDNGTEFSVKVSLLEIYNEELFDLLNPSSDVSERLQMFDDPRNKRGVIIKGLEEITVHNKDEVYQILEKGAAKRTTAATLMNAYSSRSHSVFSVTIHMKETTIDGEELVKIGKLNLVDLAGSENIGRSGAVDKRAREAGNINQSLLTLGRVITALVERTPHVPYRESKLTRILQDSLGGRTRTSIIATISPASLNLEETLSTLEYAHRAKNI
Nature of the data set: ADP-Glo Eg5 assay (4.8 μM ATP). The data set is classed as biochemical. To be noted: for IC50: preformed microtubules, 4.8 μM ATP (Table 4). On the procedure:
as §4

Setting [5] is: 15 μM, 4NCA DLD1 cells (Table 4).
The mark [6] stands for this setting: 15 µM, 4NCA cells, supplementary CSV.
The mark [7] stands for this setting: LE = −1.4Log(IC50 [M])/number of non-hydrogen atoms (Table 1).
Where [8] appears, read: LLE = −Log(IC50 [M]) – cLogP (MoKa) (Table 1).
[9] abbreviates: preformed microtubules, 3 μM ATP, mean (±SD) n ≥ 3 (Table 4), read-out: HSET ADP-Glo IC50.
Where [10] appears, read: preformed microtubules, 3 μM ATP, mean (±SD) n ≥ 3, >200 from a single determination (Table 1), read-out: HSET ADP-Glo IC50.
Setting [11] is: LE = −1.4Log(IC50 [M])/number of non-hydrogen atoms (Table 2).
The mark [12] stands for this setting: LLE = −Log(IC50 [M]) – cLogP (MoKa) (Table 2).
Setting [13] is: preformed microtubules, 3 μM ATP, mean (±SD) n ≥ 3, >200 from a single determination (Table 2), read-out: HSET ADP-Glo IC50.

Like-named read-outs stand apart in the source and are kept apart here. Some results are limits rather than exact numbers.

Take `CCOC(=O)c1sc(NC(=O)CCNC(=O)c2cccc(-c3noc(C)n3)c2)nc1C` [Compound 13, Ethyl 4-Methyl-2-(3-(3-(5-methyl-1,2,4-oxadiazol-3-yl)benzamido)propanamido)thiazole-5-carboxylate]: the “% multipolarity above baseline @ 15 μM (4NCA cells)” value in data set [1] (setting [5]) and in data set [1] (setting [6]) was 9% in each case. In addition, the “increase in mitotic spindle multipolarity (4NCA)” value in data set [1] (15 μM, centrosome-amplified (4NCA) DLD1 cell line) is recorded as ~10%. The LE in data set [2] (setting [7]) stood at 0.33. In addition, the LLE in data set [2] (setting [8]) worked out at 4.6. Further, the IC50 in data set [2] (setting [9]) was 0.063 µM; in data set [2] (setting [10]), 0.063 µM; in data set [4], > 200 µM. Besides, the “% Multipolarity above baseline @ 15 mM (4N cells)” value in data set [3] (15 μM) amounted to 1%. In addition, in data set [3] (15 μM, non-centrosome amplified DLD1 (4N) cell line), the “effect on multipolar mitoses (4N), in words” value is reported as “no increases in multipolar mitoses”. The “% multipolarity above baseline @ 15 μM (4N cells)” value in data set [3] is 1%.

With `CCOC(=O)c1sc(N(C)C(=O)CCNC(=O)c2cccc(-c3noc(C)n3)c2)nc1C` [Compound 23, Ethyl 4-Methyl-2-(N-methyl-3-(3-(5-methyl-1,2,4-oxadiazol-3-yl)benzamido)propanamido)thiazole-5-carboxylate], in data set [2] (setting [11]), the LE came to 0.31. In data set [2] (setting [12]), the LLE is on record as 4.6. Also, the IC50 in data set [2] (setting [13]) was determined as 0.089 µM.

Regarding `Cc1csc(NC(=O)CCNC(=O)c2cccc(-c3noc(C)n3)c2)n1` [Compound 20, 3-(5-Methyl-1,2,4-oxadiazol-3-yl)-N-(3-((4-methylthiazol-2-yl)amino)-3-oxopropyl)benzamide], in data set [2] (setting [13]), the IC50 was > 200 µM. Also, the “fold reduction in HSET potency” value in data set [2] (relative to 13) was 3000 fold.

Turning to `CCOC(=O)c1sc(NC(=O)CCNC(=O)c2cccc(CC)c2)nc1C` [Compound 5, Ethyl 2-(3-(3-Ethylbenzamido)propanamido)-4-methylthiazole-5-carboxylate], the LE in data set [2] (setting [7]) was determined as 0.29. For the same compound, the LLE in data set [2] (setting [8]) is reported as 2.2. Also, the IC50 in data set [2] (setting [10]) stood at 2.32 µM.

Usually inhibition stands for the drop in the measured response relative to a control, in per cent. Low readings indicate a response near the control, high ones a response far below the control. In the case of `CCOC(=O)c1sc(NC(=O)CCNC(=O)c2cccc(C)c2)nc1C` [Compound 2, Ethyl 4-Methyl-2-(3-(3-methylbenzamido)propanamido)thiazole-5-carboxylate], the “% multipolarity above baseline @ 15 μM (4NCA cells)” value in data set [1] (setting [5]) and in data set [1] (setting [6]) was 0% in each case. Further, in data set [2], the “ligand efficiency (LE)” value amounted to 0.30. For the same compound, the “lipophilic ligand efficiency (LLE)” value in data set [2] is 2.5. Moreover, the IC50 in data set [2] (ATP concentration of 3 μM, read-out: HSET IC50) is 2.7 µM; in data set [2] (ATP concentration of 150 μM, read-out: HSET IC50 at higher ATP concentration), 7.1 µM; in data set [2] (setting [9]), 2.73 µM; in data set [2] (setting [10]), 2.73 µM; in data set [4], > 200 µM. In data set [2] (setting [7]), the LE is 0.30. Also, in data set [2] (setting [8]), the LLE is listed as 2.5. In addition, in data set [3] (15 μM), the “% Multipolarity above baseline @ 15 mM (4N cells)” value was determined as 1%. Further, the “% multipolarity above baseline @ 15 μM (4N cells)” value in data set [3] came to 1%. For the same compound, the inhibition at 200 µM in data set [4] (top concentration of 200 μM) stood at 10%.

For `CCOC(=O)c1sc(NC(=O)CCNC(=O)c2cccc(-c3nnc(C)o3)c2)nc1C` [Compound 16, Ethyl 4-Methyl-2-(3-(3-(5-methyl-1,3,4-oxadiazol-2-yl)benzamido)propanamido)thiazole-5-carboxylate], in data set [2] (setting [7]), the LE is reported as 0.3. For the same compound, in data set [2] (setting [8]), the LLE is 4.4. Further, the IC50 in data set [2] (setting [10]) is 0.26 µM.

On to `CCCOC(=O)c1cc(NC(=O)CCNC(=O)c2cccc(-c3noc(C)n3)c2)nn1C` [Compound 28, Propyl 1-Methyl-3-(3-(3-(5-methyl-1,2,4-oxadiazol-3-yl)benzamido)propanamido)-1H-pyrazole-5-carboxylate], for which, in data set [2] (setting [11]), the LE came to 0.30. The LLE in data set [2] (setting [12]) was found to be 4.7. Further, the IC50 in data set [2] (setting [13]) was found to be 0.157 µM.

For the compound `CCOC(=O)c1sc(NC(=O)CCNC(=O)c2cccc(-c3n[nH]c(C)n3)c2)nc1C` [Compound 15, Ethyl 4-Methyl-2-(3-(3-(5-methyl-1H-1,2,4-triazol-3-yl)benzamido)propanamido)thiazole-5-carboxylate], the “HSET inhibitory activity (in words)” value in data set [2] (HSET ADP-Glo) is recorded as “eliminated potency”. Also, the IC50 in data set [2] (setting [10]) was > 200 µM.

The values are drawn from article PMC9969401, “Discovery of 2-(3-Benzamidopropanamido)thiazole-5-carboxylate Inhibitors of the Kinesin HSET (KIFC1) and the Development of Cellular Target Engagement Probes” (Journal of Medicinal Chemistry, 2023).
